Data: patent publication US5620955A, “Bombesin receptor antagonists and uses thereof” (Peptide Technologies Corporation, priority 1993, dated 1997)
Like-named read-outs stand apart in the source and are kept apart here. Non-standard residues stand in square brackets, D forms with d. Residues, ends and D or L forms follow the SMILES beside them. *: point of attachment. BrAc = O=C(CBr)*

Columns and labels:
NCI-H345 [1] = experiment: Clonagenic assay, colony formation of NCI-H345; type: cell-based, human; parameters: key to Growth: significantly reduced (R); had no effect (--) on th; settings: for reversal of colony inhibition by BBN (in words): 1 μM antagonist, 10 nM BBN added, both cell lines; for colony formation (in words): NCI-H345, 1 μM; for colony formation: NCI-H345, antagonist 1 μM plus BBN 10 nM; for Growth: compound 1 μM, clonal growth of a human tumor cell line
Procedure: The effect of 1 to 1000 nM concentration of peptides on growth of NCI-H345 colonies stimulated by 10 nM BBN was measured in the agarose cloning system (Mahoud et al., Cancer Res. 51:1798 (1991); Staley et al., Peptides 12:145-149 (1991)). […] On the day of the assay, cells were harvested, centrifuged and suspended in the buffer. The agarose cloning system consisted of 3 ml of 0.5% agarose in SIT medium with 5% fetal bovine serum in six well plates. To a top layer, consisting of 3 ml HITES medium in 0.3% agarose, the peptides at two times concentration and 6×10^4 single viable cells, were added. For each peptide concentration, triplicate wells were plated. After two weeks, 1 ml of 0.1% p-iodo-nitrotetrazolium violet was added, and after 16 hours at 37° C., the plates were screened for colony formation; the number of colonies larger than […] in diameter were counted using a Bausch and Lomb Omnicon image analysis system.

NCI-H720 = experiment: Clonagenic assay, colony formation of NCI-H720; type: cell-based, human; settings: for colony formation: NCI-H720; for colony formation (in words): second SCLC line (NCI-H270 in the text, NCI-H720 in Table 4), 1 μM
Procedure: On the day of the assay, cells were harvested, centrifuged and suspended in the buffer. The agarose cloning system consisted of 3 ml of 0.5% agarose in SIT medium with 5% fetal bovine serum in six well plates. To a top layer, consisting of 3 ml HITES medium in 0.3% agarose, the peptides at two times concentration and 6×10^4 single viable cells, were added. For each peptide concentration, triplicate wells were plated. After two weeks, 1 ml of 0.1% p-iodo-nitrotetrazolium violet was added, and after 16 hours at 37° C., the plates were screened for colony formation; the number of colonies larger than […] in diameter were counted using a Bausch and Lomb Omnicon image analysis system.

BBN receptor [2] = target: T1, BBN receptor (Homo sapiens, UniProt P30550); experiment: Inhibition of [125I]Tyr4-BBN binding to SCLC NCI-H345 membranes; settings: for inhibition of BBN binding to SCLC membranes (in words): radiolabelled Tyr4-BBN
T1 construct: endogenous in cells; host or cells: NCI-H345 (human SCLC)
Procedure: (§1) Acinar cells from rat pancreas bind BBN and secrete amylase when treated with BBN. The ability of potential antagonists to bind to rat pancreatic acinar cells was examined by determining the ability of the compounds to inhibit the binding of radiolabelled BBN. […] Finally, antagonist activity of the compounds was determined by measuring the ability of compounds to prevent the release of amylase from cells in response to BBN. […] This cell line was also used to evaluate biological activities of potential antagonists derived from the structures of BBN and GRP. The binding of synthetic compounds to cellular membranes prepared from NCI-H345 was determined. The ability of potential antagonists to block the BBN-stimulated increase in cytosolic levels of Ca^++ was determined. Compounds showing inhibition were further tested to determine the effect on growth of two human SCLC cell lines in culture.
Potential antagonists were also evaluated for their ability to inhibit the binding of radiolabelled Tyr^4 -BBN to SCLC membranes and for their effects on BBN signal transduction in SCLC cells.

BBN receptor [3] = target: T1, BBN receptor; experiment: Cytosolic Ca++ assay in SCLC cell line NCI-H345; type: cell-based; parameters: key: antagonized (A); had no effect (--) on the ability of 10 nM BBN to; settings: compound 10 μM; 10 nM BBN elevation of cytosolic Ca++
Procedure: SCLC cell line NCI-H345 was cultured for two days in medium containing 10^-8 M hydrocortisone, 5 μg/ml bovine insulin, 10 μg/ml human transferrin, 10^-8 M β-estradiol and 3×10^-8 M Na2 SeO3. The cells were harvested and washed, resuspended in medium containing 20 mM HEPES, pH 7.4, and loaded with 5 μM Fura 2 AM (Calbiochem) for 30 minutes. The cells were centrifuged at 150×g for 10 minutes to remove extracellular dye and resuspended and placed in a spectrofluorometer cell equipped with stirring and 37° C. heating. The emission was read at 510 nm with 340 excitation (Moody et al., Biochem. Biophys. Res. Commun. 147:189 (1987)). The response of compounds at 5 μM was measured initially as a screen and compared to that of 10 nM BBN. The response of varying concentrations of peptide (nM to μM) in the presence of 10 nM BBN was determined.

NCI-H345 [4] = experiment: Clonagenic assay, colony formation of NCI-H345; type: cell-based, human; settings: antagonist 1 μM alone, mean ± S.E. of 3
BBN receptor [5] = target: T2, BBN receptor (Rattus norvegicus, UniProt P52500); experiment: Inhibition of 125I bombesin binding to rat pancreatic acinar cells
Procedure: Inhibition of equilibrium binding of ^125 I labeled bombesin to acinar membranes by the compounds was determined. The Kd was determined by dividing IC50 (the concentration of synthetic compound required to inhibit 50% of the specific binding of labelled BBN) by the concentration of radiolabeled peptide.

BBN receptor [6] = target: T2, BBN receptor; experiment: Stimulation of amylase release from rat pancreatic acinar cells by the compound alone (agonist test); type: cell-based
BBN receptor [7] = target: T2, BBN receptor; experiment: Inhibition of bombesin-stimulated amylase release from rat pancreatic acini; type: cell-based; settings: half-maximal inhibition of bombesin-stimulated amylase release from acini; mean ± s.e.m.
Procedure: as §1
The incubation solution contained 1% albumin and the wash solution contained 0.2% albumin. The solution was equilibrated with 100% O2. Dispersed acini were suspended in 20 ml of solution. Samples of 1 ml were incubated in the presence of various concentrations of compounds in the presence of 1 nM bombesin. After the first incubation the samples were washed 4 times with wash solution at 4° C. The acini were then resuspended in fresh incubation buffer and incubated at 37° C. Amylase release was measured by the Phadebas reagent. Amylase secretion during a given incubation was expressed as the percentage of amylase present in the acini at the beginning of that incubation that was released into the extracellular medium.

bombesin receptor = settings: inhibits growth with moderate potency; literature value; cited from earlier work
[8] = antagonist 1 μM alone, mean ± S.E. of 3

T1 sequence (P30550 whole entry): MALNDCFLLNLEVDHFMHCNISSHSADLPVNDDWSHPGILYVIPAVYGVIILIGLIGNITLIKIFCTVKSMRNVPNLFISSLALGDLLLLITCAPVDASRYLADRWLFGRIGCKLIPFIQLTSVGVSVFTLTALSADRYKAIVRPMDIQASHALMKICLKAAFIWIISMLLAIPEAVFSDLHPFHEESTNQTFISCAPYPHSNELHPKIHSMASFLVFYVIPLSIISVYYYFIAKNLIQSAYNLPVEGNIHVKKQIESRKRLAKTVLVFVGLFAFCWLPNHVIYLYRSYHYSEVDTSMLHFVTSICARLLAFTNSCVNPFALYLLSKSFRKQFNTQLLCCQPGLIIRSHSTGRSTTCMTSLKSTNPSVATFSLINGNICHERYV
T2 sequence (P52500 whole entry): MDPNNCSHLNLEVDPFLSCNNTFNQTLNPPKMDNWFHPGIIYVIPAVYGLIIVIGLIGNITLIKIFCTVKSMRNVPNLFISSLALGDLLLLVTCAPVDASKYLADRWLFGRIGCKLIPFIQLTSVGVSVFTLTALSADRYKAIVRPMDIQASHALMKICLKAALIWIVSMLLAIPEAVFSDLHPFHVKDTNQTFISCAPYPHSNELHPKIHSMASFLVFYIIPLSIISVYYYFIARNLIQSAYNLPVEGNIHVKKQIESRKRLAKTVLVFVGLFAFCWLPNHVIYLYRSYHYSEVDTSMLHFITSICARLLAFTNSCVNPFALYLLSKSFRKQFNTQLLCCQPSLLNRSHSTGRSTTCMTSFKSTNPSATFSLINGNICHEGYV

Kd (BBN receptor [5]; inhibition of 125I bombesin binding, IC50 divided by radioligand concentration) [nM]	binding to rat pancreatic acinar cells (in words) (BBN receptor [5]; inhibition of radiolabelled BBN binding)	IC50 (BBN receptor [2]; 50% inhibition of specific [125I]Tyr4-BBN binding, NCI-H345, read-out: IC50) [nM]	EC50 (BBN receptor [6]) [nM]	IC50 (BBN receptor [7]) [nM]	Molecule	reversal of colony inhibition by BBN (in words) (NCI-H345 [1])	colony formation (in words) (NCI-H345 [1])	colony formation (NCI-H345 [1]) [Colony per mm^2]	Growth (NCI-H345 [1])	colony formation (NCI-H720; [8]) [Colony per mm^2]	colony formation (NCI-H720; antagonist 1 μM plus BBN 10 nM) [Colony per mm^2]	colony formation (in words) (NCI-H720)	IC50 (BBN receptor [2]) [nM]	inhibition of BBN binding to SCLC membranes (in words) (BBN receptor [2])	Ca++ effect (BBN receptor [3])	colony formation (NCI-H345 [4]) [Colony per mm^2]	Ki (bombesin receptor) [nM]
					CCOC(=O)[C@H](CC(C)C)NC(=O)[C@H](Cc1c[nH]cn1)NC(=O)[C@@H](C)NC(=O)[C@@H](NC(=O)[C@H](C)NC(=O)[C@H](Cc1c[nH]c2ccccc12)NC(=O)[C@H](CCC(N)=O)NC(=O)[C@H](CC(N)=O)NC(=O)CBr)C(C)C [PTC 816] (BrAc-NQWAV[dA]HL-OEt)	can be reversed	reduce the amount of colony formation	52 ± 3	R	37 ± 6	66 ± 8	reduce the amount of colony formation	55	potent inhibitors of BBN binding	A	27 ± 4	
8.1 ± 1.8	did bind to the cells	25	> 3000	4.9 ± 0.1	CCOC(=O)[C@H](CC(C)C)NC(=O)[C@H](Cc1c[nH]cn1)NC(=O)[C@@H](C)NC(=O)[C@@H](NC(=O)[C@H](C)NC(=O)[C@H](Cc1c[nH]c2ccccc12)NC(=O)[C@H](Cc1c[nH]cn1)NC(C)=O)C(C)C [PTC 818] (Ac-HWAV[dA]HL-OEt)	can be reversed	reduce the amount of colony formation	57 ± 6	R	36 ± 4	62 ± 7	reduce the amount of colony formation		potent inhibitors of BBN binding	A	20 ± 5	
					[Psi^13,14, Leu^14 ]BBN												30
